# Laboratory results reported in US20240074473A1, “METHOD FOR INDUCING HYPERTROPHIC MUSCLE FIBERS FOR INDUSTRIAL MEAT PRODUCTION” (Yeda Research and Development Co. Ltd., priority 2021, published 2024).
# Structures can show the parent of a compound that is named as a salt. Where two headings read alike, the source gives them in different places.
# Legend:
# [1] = cited from earlier work
# [2] = Maximum estimated dietary exposure to media ingredients per 100 g serving; conditions: assumption of complete transfer of media components to the finished product on a wt/wt basis
# [3] = Risk categorization of cell culture media ingredients
# Text: Category 1: These cell culture media components are food ingredients/additives that are GRAS or permitted by federal regulation without limitation on use. Exemplary compounds in this category include innocuous ingredients such as sugars, pH buffers, water soluble vitamins, and common antioxidants such as tocopherols.
# Category 2: These cell culture media components are common dietary nutrients and are anticipated to have GRAS status for food use or be permitted by regulation for addition to food. Examples of such compounds include most of the inorganic salts and macronutrients that are present within the cell culture media. […] Majority of nutrients present within the poultry cell-based meat may be readily measured using common validated methods for food composition testing. Batch analyses of multiple lots of the finished product may be obtained to validate the above assumptions. In some instances, consideration of established safe levels (e.g., ADI, UL) derived from a relevant authoritative body (e.g., U.S. FDA, EFSA, JECFA, FSANZ, U.S. EPA) may be leveraged to support safety. If comparisons of anticipated dietary intakes relative to an authoritative reference intake value is used, consideration of additive intakes from all dietary sources may be considered. In the absence of an authoritative reference intake value, published NOAELs from animal toxicology studies may be used to evaluate safety using standard scientific procedures for food safety evaluation. A margin of exposure (MoE) of 100-fold or greater between the NOAEL and estimated dietary intakes from food exposures is typically considered adequate to support safety. in situations where the MoE is <100-fold, additional measures for further reduction of the media component may be necessary, or further characterization of intraspecies/interspecies differences in metabolism may be necessary. These situations also require careful consideration of the regulatory status on a case-by basis (e.g., premarket approval as a food additive or GRAS evaluation required).
# For example, situations where the compound is not detectable in finished product or is present at equivalent levels in comparator foods, compounds that are thermo-labile and will be digested during cooking, and/or compounds that are expected to be digested to innocuous compounds following ingestion. Examples of compounds meeting the aforementioned conditions would include recombinant growth factors and serum components. For Category 3 substances a final consideration in the safety assessment process may involve hazard characterization of the potential for a substance to produce toxic biological effects outside of the endpoints measured in a sub-chronic rat toxicity study. Substances with biological activity may require additional hazard characterization related to reproductive and developmental toxicity, or immunotoxicity. Considerations for allergenicity, biological effects in humans (e.g., effects on blood pressure), and synergistic effects with other media components also may be evaluated. […] Examples of category 3 components include recombinant proteins and animal serum.
# [4] = cell culture media ingredient used during meat production
# [5] = human dietary intake, niacinamide and magnesium sulfate: supplements
Compound,Maximum Estimated Exposure per 100 g serving [2] [mg],"Risk Assessment Category [3, 4]",Risk Assessment Category [3],also measured
CALCIUM D-PANTOTHENATE,100,,,Safe Reference Level for Human Dietary Intake (UL) given as symbol ([1]; human dietary intake): UL = NS
Cc1c(C)c2c(c(C)c1O)CC[C@@](C)(CCC[C@H](C)CCC[C@H](C)CCCC(C)C)O2 [D-ALPHA-TOCOPHEROL],1.6,1,,Safe Reference Level for Human Dietary Intake: UL (Tolerable Upper Limit) ([1]; human dietary intake): UL = 1000 mg/d
Cc1ncc(C[n+]2csc(CCO)c2C)c(N)n1 [THIAMINE-HCL],18,,1,Safe Reference Level for Human Dietary Intake (UL) given as symbol ([1]; human dietary intake): UL = NS
CCCCC/C=C\C/C=C\CCCCCCCC(=O)O [LINOLEIC ACID],1,,2,Safe Reference Level for Human Dietary Intake: AI (Adequate Intake) ([1]; human dietary intake): AI = 7 to 12 g/d
O.O.O.O.O.O.O.O=S(=O)([O-])[O-].[Zn+2] [ZINC SULFATE-7H20],15,,1,Safe Reference Level for Human Dietary Intake: UL (Tolerable Upper Limit) ([1]; human dietary intake): UL = 5 to 40 mg/day
COPPER SULFATE-PENTAHYDRATE,3,,,Safe Reference Level for Human Dietary Intake (kind of level not given) ([1]; human dietary intake): 1 to 10 mg
"NC(=O)c1cccnc1 [NIACINAMIDE (NICOTINAMIDE), NIACINAMIDE]",25,,1,"Safe Reference Level for Human Dietary Intake: UL (Tolerable Upper Limit) [1, 5]: UL = 10 to 35 mg"
"C=C1CC[C@H](O)C/C1=C/C=C1\CCC[C@]2(C)[C@@H]([C@H](C)/C=C/[C@H](C)C(C)C)CC[C@@H]12 [VITAMIN D2 (ERGOCALCIFEROL), ERGOCALCIFEROL]",0.024,,1,Safe Reference Level for Human Dietary Intake: UL (Tolerable Upper Limit) ([1]; human dietary intake): UL = 100 ug/d
O=S(=O)([O-])[O-].[Mg+2] [MAGNESIUM SULFATE (ANHY)],493,1,,"Safe Reference Level for Human Dietary Intake: UL (Tolerable Upper Limit) [1, 5]: UL = 65 to 350 mg"
[Cl-].[K+] [POTASSIUM CHLORIDE],4000,1,,Safe Reference Level for Human Dietary Intake (UL) given as symbol ([1]; human dietary intake): UL = NS
O.O=S(=O)([O-])[O-].[Mn+2] [MANGANESE SULFATE H2O],0.003,1,,Safe Reference Level for Human Dietary Intake (kind of level not given) ([1]; human dietary intake): 0.002 to 0.011 g/day
O.O.O.O.O.O.O.O=S(=O)([O-])[O-].[Fe+2] [FERROUS SULFATE-7H2O],2.5,,2,"Safe Reference Level for Human Dietary Intake: Iron UL ([1]; human dietary intake, as iron): Iron UL = 40 to 45 mg"
CC(=O)Oc1c(C)c(C)c2c(c1C)CCC(C)(CCCC(C)CCCC(C)CCCC(C)C)O2 (racemic) [DL-ALPHA-TOCOPHEROL ACETATE],8,1,,Safe Reference Level for Human Dietary Intake: UL (Tolerable Upper Limit) ([1]; human dietary intake): UL = 1000 mg/d
[Cl-].[Cl-].[Mg+2] [MAGNESIUM CHLORIDE (ANHY)],170,1,,Safe Reference Level for Human Dietary Intake (kind of level not given) ([1]; human dietary intake): 65 to 350 mg
[Cl-].[Na+] [SODIUM CHLORIDE],,,,Safe Reference Level for Human Dietary Intake (kind of level not given) ([1]; human dietary intake): 2.3 g/day
CC(=O)C(=O)[O-].[Na+] [SODIUM PYRUVATE],1000,3,,"Safe Reference Level for Human Dietary Intake, in words ([1]; dietary intakes within the range of OSL values reported in human investigations): Dietary intakes within"
CCCCCCCC/C=C\CCCCCCCC(=O)OCCOCC(OCCO)C1OCC(OCCO)C1OCCO (centres unmarked) [TWEEN 80],4,2,,Safe Reference Level for Human Dietary Intake: ADI (Acceptable Daily Intake) ([1]; human dietary intake): ADI = 10 mg/kg bw/d
[Ca+2].[Cl-].[Cl-] [CALCIUM CHLORIDE (ANHY)],760,1,,Safe Reference Level for Human Dietary Intake (kind of level not given) ([1]; human dietary intake): 1 to 3 g/day
